This is an account of results in patent US20180086744A1, “COMBINATION TREATMENT OF CANCER COMPRISING EGFR/HER2 INHIBITORS” (Boehringer Ingelheim International GmbH, priority 2005, published 2018).

Usually inhibition stands for how much of the control response was suppressed.

For experiment [1], the system named is SKOV-3 cells. The experiment in a line: anchorage independent SKOV-3 cell assay (soft agar). The class given is cell-based, human. On the procedure:
SKOV-3 cells are grown on a soft agar layer in the presence of 2 nM BIBW2992BS or three concentrations of 5FU (200 nM, 400 nM, 800 nM) or in combination of both.

For experiment [2], the system named is cell lines expressing double mutant EGF receptors. As to conditions: cited from earlier work.
Experiment [3] relates to double mutant EGF receptors. As to conditions: cell lines expressing double mutant EGF receptors; cited from earlier work.

For `CN(C)C/C=C/C(=O)Nc1cc2c(Nc3ccc(F)c(Cl)c3)ncnc2cc1O[C@H]1CCOC1` [BIBW2992, 4-[(3-chloro-4-fluorophenyl)amino]-6-{[4-(N,N-dimethylamino)-1-oxo-2-buten-1-yl]amino}-7-((S)-tetrahydrofuran-3-yloxy)-quinazoline], the inhibition at 0.002 µM in experiment [1] (Homo sapiens, SK-OV-3, 2 nM, read-out: inhibition of cell growth) is 20%.
Consider `O=c1[nH]cc(F)c(=O)[nH]1` [5FU, 5-fluorouracile], for which the “inhibition of cell growth” value in experiment [1] (200 nM) and in experiment [1] (400 nM) was “No inhibition” in each case. For the same compound, the inhibition at 0.8 µM in experiment [1] (Homo sapiens, SK-OV-3, 800 nM, read-out: inhibition of cell growth) turned out to be 13%.
Take `CC#CC(=O)Nc1ccc2ncnc(Nc3cccc(Br)c3)c2c1` [CL 387,785]: the inhibition of proliferation entry in experiment [2] was “able to inhibit”. Besides, in experiment [3], the “inhibition of EGF-induced EGFR phosphorylation” value is reported as “able to inhibit”.
